Laboratory results reported in US10987343B2, “Compositions and methods for treating pulmonary diseases” (CASE WESTERN RESERVE UNIVERSITY, priority 2015, dated 2021).

Columns and labels:
CF mice [1] = experiment: Pulmonary mechanics of CF mice by forced oscillation technique (FlexiVent) after treatment with AGTR2 blocker; format: in vivo; settings: 2 mg/kg per day subcutaneous, 5 days per week, age 3 to 16 weeks, assessed at 16 weeks, 2 mg/kg/day
Source text: AGTR2 knockout mice (AT KO; dark grey bars) are indistinguishable from WT mice.
We recently used a forced mechanical oscillation procedure to evaluate pulmonary mechanics in CF mice (DF508 congenic C57bl/6). We determined that CF mice have decreased compliance and increased elastance of their overall respiratory system, along with altered airway tissue elastance, damping, and static compliance (FIG. 1). […] Taken together, these findings indicate increased impedance of the small airways in CF mice, as differences in CF mouse pulmonary mechanics were confined to the peripheral tissues, which include the distal airways and lung parenchyma itself. This is consistent with the pulmonary phenotype of CF patients, where significant increases in small airways resistance may occur even in patients with normal spirometry.
(§1) Drugs exist that are designed to specifically block the AGTR2 receptor, and we used one of these drugs to determine whether the same benefits may be achievable through pharmaceutical intervention. Briefly, CF mice were treated via subcutaneous injection of EMA200 (PD123319), available from Sigma Pharmaceuticals), at a dose of 2 mg/kg per day. The mice were treated from age 3 weeks through adulthood (16 weeks), 5 days per week. At 16 weeks, the pulmonary mechanics of the mice were assessed using the forced oscillation technique (FIG. 1).

CF mice [2] = experiment: Survival and health of CF mice during the drug study; format: in vivo
Experimental: as §1

Cc1cc(Cn2cnc3c2CC(C(=O)O)N(C(=O)C(c2ccccc2)c2ccccc2)C3)ccc1N(C)C (centres unmarked) [EMA200, 1-(4-Dimethylamino-3-methylphenyl)methyl-5-diphenylacetyl-4,5,6,7-tetrahy-dro-1H-imidazo[4,5-c]-pyridine-6-carboxylic acid]
pulmonary mechanics / all aspects of pulmonary disease (respiratory system compliance and elastance, tissue damping, tissue elastance, static tissue compliance) (CF mice [1]): successfully restored/prevented all aspects of pulmonary disease in CF mice | shape parameter (inhalation/exhalation curve shape, K) (CF mice [1]): not improved | pulmonary mechanics / all aspects of pulmonary disease (respiratory system compliance and elastance, tissue damping, tissue elastance, static tissue compliance) (CF mice [1]; listed as AGTR2 inhibitor): improved pulmonary mechanics | survival of CF mice (CF mice [2]; 6 CF mice, daily injections, saline controls 5/6 died): all survived | general health appearance of CF mice (CF mice [2]; versus control untreated CF mice): appeared much healthier
